Assay results: PubChem BioAssay (NCI)
Where “and” joins values, the source holds several entries; their conditions need not be identical. Identical values can stand only once.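 How tested: cells in 96-well plates exposed to compound for 48 hours at five concentrations. GI50 marks 50% less growth. The concentration for full growth arrest is given as TGI.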

How the values were obtained:
Assay in all cases: NCI tumour cell line growth inhibition, 48 h
HCT-116 colon = test system: HCT-116 colon
SF-295 CNS = test system: SF-295 CNS
ACHN renal = test system: ACHN renal
SR leukemia = test system: SR leukemia
M14 melanoma = test system: M14 melanoma
HCC-2998 colon = test system: HCC-2998 colon
BT-549 breast = test system: BT-549 breast
NCI-H522 lung = test system: NCI-H522 lung
HOP-92 NSCLC = test system: HOP-92 NSCLC
U251 CNS = test system: U251 CNS

| Structure (SMILES) | GI50 (HCT-116 colon) | TGI (HCT-116 colon) | GI50 (SF-295 CNS) | TGI (SF-295 CNS) | GI50 (ACHN renal) | TGI (ACHN renal) | GI50 (SR leukemia) | TGI (SR leukemia) | GI50 (M14 melanoma) | TGI (M14 melanoma) | GI50 (HCC-2998 colon) | TGI (HCC-2998 colon) | GI50 (BT-549 breast) | TGI (BT-549 breast) | GI50 (NCI-H522 lung) | TGI (NCI-H522 lung) | GI50 (HOP-92 NSCLC) | TGI (HOP-92 NSCLC) | GI50 (U251 CNS) | TGI (U251 CNS) |
| --- | --- | --- | --- | --- | --- | --- | --- | --- | --- | --- | --- | --- | --- | --- | --- | --- | --- | --- | --- | --- |
| COc1ccc(C2=CC(c3ccc(OC)cc3Br)N3C=CSC3=N2)cc1 (centres undefined) | 1.66 µM | 3.17 µM | 11.5 µM | 38.7 µM | 2.39 µM | 5.88 µM | 1.73 µM | 7.1 µM | 5.21 µM | 20.8 µM | 5.38 µM | 17.8 µM | 3.19 µM | 12.1 µM | 5.22 µM | 20.7 µM | 5.78 µM | 41.8 µM | 3.23 µM | 14 µM |
| CN1CCc2[nH]nc(-c3n[nH]c4c3CN(C)CC4)c2C1 | – | > 100 µM | – | > 100 µM | – | > 100 µM | – | > 100 µM | – | > 100 µM | – | > 100 µM | – | > 100 µM | – | > 100 µM | – | > 100 µM | – | > 100 µM |
| CC1=C(CCC(C)NCc2ccc(OCCCN3CCCCC3)cc2)C(C)(C)CCC1 (centres undefined) | 1.53 µM | 3.13 µM | 1.66 µM | 3.23 µM | 1.69 µM | 3.17 µM | 0.221 µM | 0.608 µM | 0.214 µM | 0.468 µM | 0.232 µM | 0.612 µM | 2.08 µM | 3.89 µM | 1.45 µM | 3.21 µM | 1.26 µM | 2.72 µM | 1.57 µM | 3.28 µM |
| Cc1nn(-c2ccc(Cl)cc2)c2nc3c(nc12)C(=O)C(=O)c1ccccc1-3 | 7.42 µM | 32.8 µM | 1.72 µM | 3.43 µM | 19.5 µM | > 100 µM | 7.28 µM | > 100 µM | 1.89 µM | 4.1 µM | 1.74 µM | 3.79 µM | 1.57 µM | 4.76 µM | 2.96 µM | 6.57 µM | 0.18 µM | 30.8 µM | 3.21 µM | 10.1 µM |
| OCCn1cnc2c(SCc3ccccc3)ncnc21 | – | > 100 µM | – | > 100 µM | – | > 100 µM | – | > 100 µM | – | > 100 µM | – | > 100 µM | – | > 100 µM | – | > 100 µM | – | > 100 µM | – | > 100 µM |
| CC(C)CCNCC(O)Cn1c2ccccc2c2ccccc21 (centres undefined) | 9.47 µM | 24.1 µM | 19.4 µM | 39.4 µM | 10.5 µM | 23.4 µM | 2.45 µM | 6.38 µM | 2.73 µM | 7.5 µM | 2.06 µM | 4.22 µM | 16.5 µM | 31.4 µM | 13.6 µM | 27.7 µM | 2.71 µM | 18.1 µM | 10.5 µM | 23.5 µM |
| NC(=O)Nc1cc(-c2cccc(F)c2)sc1C(=O)N[C@H]1CCCNC1 | 0.327 µM and 0.428 µM | 6.14 µM and 2.85 µM | 0.0397 µM and 0.0882 µM | 0.776 µM and 2.87 µM | 0.0512 µM and 0.0952 µM | > 4.73 µM and 2.75 µM | 0.0312 µM and 0.14 µM | – | 0.031 µM and 0.102 µM | 0.476 µM and 0.525 µM | 0.117 µM and 0.273 µM | 1.4 µM and 2.64 µM | 0.15 µM and 0.334 µM | 2.05 µM and 1.41 µM | 0.291 µM and 0.273 µM | 4.87 µM and 2.23 µM | 0.0553 µM and 0.416 µM | 1.2 µM and 1.71 µM | 0.354 µM and 0.526 µM | > 4.59 µM and 2.53 µM |
| NCCN.O=C([O-])CN1CCOCC1.[OH-].[Pt+4] | > 100 µM | > 100 µM | > 100 µM | > 100 µM | > 100 µM | > 100 µM | > 100 µM | > 100 µM | > 100 µM | > 100 µM | > 100 µM | > 100 µM | > 100 µM | > 100 µM | > 100 µM | > 100 µM | > 100 µM | > 100 µM | > 100 µM | > 100 µM |
| O=C1C(c2cnc3ccccc3n2)=C(O)c2ccccc21 | – | > 100 µM | – | > 88.1 µM | – | > 100 µM | – | > 100 µM | – | > 100 µM | – | > 100 µM | – | > 100 µM | – | > 100 µM | – | > 100 µM | – | > 100 µM |
